Test: in vitro
Conditions: human, hela cells, % viability

Structure (SMILES)	viability at 28.5 h, 10 µM
CCOC(=O)c1ccc(-c2[nH]cnc2-c2c(C)cc(OC)cc2O)o1 [CBK026647]	113%
CCn1c(C)nnc1SCC(=O)Nc1cc(C(F)(F)F)ccc1Cl [CBK304382]	91.7%
CN(C)CCCC(=O)Nc1ccc2c(ccn2Cc2ccccc2)c1 [CBK159740]	91.2%
O=C1Cc2c(ccc3ccccc23)C2(CCN(CCCC(F)(F)F)CC2)N1 [CBK039912]	89.6%
Cc1ccc(OCC(=O)N2CCN(S(=O)(=O)c3ccccc3[N+](=O)[O-])CC2)cc1 [CBK264260]	98.5%
CN(C)S(=O)(=O)n1cc(/C=C/c2nc(N)nc(-c3ccccc3O)n2)c2ccccc21 [CBK268386]	119%
Cc1cc(=O)oc(-c2ccccc2)c1C#N [CBK004842]	95%
CC(=O)Nc1cccc(C(=O)N2CCN(Cc3ccc4c(c3)OCO4)CC2)c1 [CBK270031]	89.2%
Cn1c(=O)n(Cc2ccccn2)c(=O)c2cnc(-c3ccncc3)nc21 [CBK288592]	79%
CCN(Cc1ccncc1)C(=O)NC(C)c1ccccc1 (stereo not shown) [CBK155156]	101%
CC(=O)c1ccc2c(c1)[C@@H]1C=CC[C@@H]1[C@H](C(=O)O)N2 [CBK287093]	91.6%
CCc1nc2ccc(C(=O)Nc3ccc(Cl)c(Cl)c3)cn2c1N(CC)CCOC [CBK146042]	94%
O=C(CN1CCc2c([nH]c3ccccc23)C12CCN(Cc1ccc(F)cc1)C2)Nc1ccccc1 (stereo not shown) [CBK059450]	96%
Cc1noc(NS(=O)(=O)c2ccc(NC(=O)C3COc4ccccc4O3)cc2)c1C (stereo not shown) [CBK264923]	90.1%
COCCNc1nc(-c2ccccc2)ccc1C(=O)N(C)CCN(C)C [CBK105913]	99.3%
O=C(N/N=C/c1ccc([N+](=O)[O-])cc1)c1ccccc1Cl [CBK261775]	88.7%
Cc1cc(C)c2c(c1)cc(C)c1nn(CC(=O)N(C)C)c(=O)n12 [CBK283927]	96.9%
Cc1ccc(NC(=O)COc2ccc(/C=C\c3onc(C)c3[N+](=O)[O-])cc2)cc1 [CBK268928]	88.2%
CC(NS(=O)(=O)c1ccc(OCC(=O)N2CCc3ccccc3C2)c(Cl)c1)c1ccccc1 (stereo not shown) [CBK269117]	92%
COc1cccc(C(=O)N2CCOC(c3cc(C(=O)NCC(C)C)c4ccccc4n3)C2)c1 (stereo not shown) [CBK285894]	97.4%
Cn1cc(C(CC(=O)O)C(=O)O)c2ccccc21 (stereo not shown) [CBK266231]	98.9%
COc1cc(F)ccc1-c1nc2ncccc2cc1NS(C)(=O)=O [CBK085692]	89%

Structure (SMILES)	viability at 28.5 h, 10 µM
CC1CCc2nc(NC(=O)C3CN(S(=O)(=O)c4ccc(F)cc4)C3)sc2C1 (stereo not shown) [CBK286004]	110%
CCCC/C=C/c1cncc(N2CCN(Cc3ccccn3)CC2)n1 [CBK066096]	93.4%
Cn1[nH]c(CO)c(Cc2c(Cl)cccc2Cl)c1=O [CBK092278T]	95.4%
COc1ccccc1C1(O)CC2CCC(C1)N2 (stereo not shown) [CBK281369]	81.9%
CC1(C)COC(=O)N1C1CCN(C(=O)c2cncc(Br)c2)CC1 [CBK038781]	81.6%
Cc1csc(NC(=O)CN2CCC(c3ccc(F)cc3)CC2)n1 [CBK283567]	94.2%
CCOC(=O)C1CC1CN1CCN(S(=O)(=O)c2ccc(OCC)c3ncccc23)CC1 (stereo not shown) [CBK062785]	92.9%
Cc1ccc2[nH]c3c(c2c1)CCNC31CCN(C(=O)Nc2c(C)noc2C)CC1 [CBK047071]	83.1%
CC1CN(Cc2cccc(CNc3nccnc3C#N)c2)CCO1 (stereo not shown) [CBK304736]	94%
CC(=O)Nc1ccc(S(=O)(=O)N2CCN(C(=O)COc3ccc(C)cc3)CC2)cc1 [CBK264268]	91%
Sc1nnc(COc2ccccc2)n1/N=C/c1ccncc1 [CBK265360]	100%
Oc1cccc(Sc2cncc(N3CCCC3)n2)c1 [CBK093796]	106%
COc1ccc(-c2cn(C[C@H]3CC4CCN3C[C@@H]4C(=O)NC3CCCCC3)nn2)cc1 (stereo partly shown) [CBK289084]	107%
Cc1cc(C)c2c(n1)OC(N1CCOCC1)(C(F)(F)F)CC2=O (stereo not shown) [CBK267301]	79.2%
CC1(C)OCc2nc(C(O)C(C)(C)C)ccc2O1 (stereo not shown) [CBK005386]	98.4%
Cn1c(=O)n(C)c2cc(S(=O)(=O)NCC3(N)CCOCC3)ccc21 [CBK306266]	113%
O=C(c1ccc(F)cc1)N1C[C@H](c2ccsc2)[C@H]2CN(Cc3cccs3)CC[C@H]21 [CBK285636]	114%
COc1cc(C)nc(NCc2cnn(C)c2C)n1 [CBK306277]	85.4%
CN1C2C=C(N(CCc3ccccc3)C(=O)c3ccc(-c4ccccc4)cc3)CC1CC2 (stereo not shown) [CBK262596C]	104%
Oc1ccc(-n2ncc(-c3ccc(F)cc3)n2)cc1 [CBK112904]	79.7%
C=CCn1c(SCC(=O)Nc2sc3c(c2C#N)CCC3)nc2scc(-c3ccccc3)c2c1=O [CBK264477]	104%
COc1nc2nc(N)nc(N)c2nc1C [CBK025669]	90.1%

Structure (SMILES)	viability at 28.5 h, 10 µM
CCc1cnc(CNC(=O)NCc2nc3cc(C)ccc3n2C)s1 [CBK306261]	98.9%
O=C(COc1ccccc1)n1nc(-c2ccco2)nc1NCc1cccs1 [CBK269145]	85.7%
Cn1c(N2CCC(C(=O)NCC3CC3)CC2)nc2ccccc21 [CBK283957]	91.6%
O=C(NC1CCS(=O)(=O)C1)c1cc2ccc(OC(F)(F)F)cc2[nH]1 (stereo not shown) [CBK305754]	92.4%
Cc1ccn(CCC(=O)N2CCC[C@@H]3NC(=O)c4ccccc4OCC/C=C/C[C@@H]32)n1 [CBK292082]	109%
Cc1ccccc1NC(=O)c1cnc2n(c1=O)CCS2 [CBK287374]	110%
CC(C)(C)NC(=O)CN1C(=O)N2CCCN=C2c2ccccc21 [CBK284404]	89.7%
COc1cc(CN2CCC[C@@H]2CN2CCCC2)cc(OC)c1OC [CBK149100]	105%
C/C(=N\Nc1nc(C(=O)O)cs1)c1ccccc1 [CBK261633]	88.7%
COc1ccc(Oc2nccnc2N2CCN(Cc3ccc(Cl)c(Cl)c3)CC2)cc1OC [CBK083038T]	91.8%
Cc1n[nH]c(C)c1CCC(=O)N/N=C/c1cccc(O)c1 [CBK262910]	97.7%
CN(CC1CC1)C(=O)Cn1cnc2c(F)cc(Br)cc2c1=O [CBK305227]	87.2%
C=CCn1c(-c2sc(NC(=O)CNC(=O)C(C)(C)C)nc2C)n[nH]c1=S [CBK297907]	91.2%
OCCN(Cc1cccnc1)Cc1cccn1Cc1ccccc1F [CBK282945]	93.5%
COc1ccc(Nc2cc(-c3ccc(CNC(=O)OC(C)(C)C)cc3)ncn2)c(OC)c1 [CBK090757]	90.8%
COc1ccc(C2C(C(=O)c3ccccc3)=C(O)C(=O)N2CCN(C)C)cc1OC (stereo not shown) [CBK263352]	119%
CCN(CC)CCOc1cc(=O)oc2ccccc12 [CBK022747C]	105%
Fc1cccc(-c2nccnc2NCC2CC2)c1 [CBK036767]	94.4%
CCCNC(=O)c1ccc(C)c(NC(=O)N[C@@H](CO)c2ccccc2)c1 [CBK306609]	96.2%
CN1C(=O)COc2ccccc2C/C=C/C[C@@H]2[C@H]1CCCN2C(=O)c1cnn2cccnc12 [CBK292083]	109%
CN(CCN1CCCCC1)C(=O)C1(c2ccc(F)cc2)CC1 [CBK282178]	95.4%
CCc1cc(C(=O)OC)c(NC(=S)Nc2nc3cc(C)c(C)cc3s2)s1 [CBK267116]	81%

Structure (SMILES)	viability at 28.5 h, 10 µM
O=C(NC(NCc1ccco1)C(Cl)(Cl)Cl)c1ccc(Br)cc1 (stereo not shown) [CBK262174]	89%
CC1(C)CC(=O)C(=CNCCCn2ccnc2)C(=O)C1 [CBK261686]	91.3%
O=c1ccc(-c2ccccc2)nn1CC1CCNCC1 [CBK284203]	98.6%
Cc1ccc(N2CCN(C3=NC(=O)/C(=C\c4ccc(O)c([N+](=O)[O-])c4)S3)CC2)cc1 [CBK264347]	92.9%
CCN(Cc1cn2ccc(C)cc2n1)CC1CCOCC1 [CBK306680]	89.7%
O=C(Nc1cc(N2CCCS2(=O)=O)ccc1F)c1cccnc1O [CBK306320]	97.4%
CC(C)OC(=O)N1CCC(CNc2ncc(-c3ccc(S(C)(=O)=O)cc3)cn2)CC1 [CBK165367]	99.1%
CCOc1cc(/C=C2\SC(=N)NC2=O)ccc1OCc1ccc(Br)cc1 [CBK263813]	97.7%
CC(Oc1ccccc1)c1nnc(SCC(=O)Nc2cc(Cl)c(Cl)cc2Cl)n1C (stereo not shown) [CBK266262]	108%
Cc1ccc2c(c1)cc(C(=O)N1CCCC(C)(C(=O)NC3CCCC3)C1)n2C (stereo not shown) [CBK286076]	81.3%
Cc1cc(C)c(NC(=O)C2CCCCN2C23CC4CC(CC(C4)C2)C3)c(C)c1 (stereo not shown) [CBK261559C]	92.6%
Nc1nnnn1/N=C/c1cc(Cl)cc(Cl)c1OCc1ccc(Cl)cc1Cl [CBK263853]	107%
CCOC(=O)C1=C(Nc2ccc([N+](=O)[O-])cc2)S/C(=C\c2ccc(O)c(OC)c2)C1=O [CBK263873]	89.3%
Cc1ccccc1SCC(C)C(=O)O (stereo not shown) [CBK012292]	83%
COC(=O)c1ccc(N/C(C)=C/C(=O)c2ccc(C)o2)cc1 [CBK267057]	115%
Cc1nc(-c2ccccc2)c(CC(=O)N(C)CCN(C)C)s1 [CBK282725]	83.3%
Clc1ccc(OCc2n[nH]c(-c3ccccn3)n2)cc1 [CBK269472]	90.2%
Cc1nc2cc(OCc3ccc(Cn4ccn(C(=O)CCC5CCCC5)c4=O)cc3)ccc2s1 [CBK106641]	115%
NCc1cnc2c(c1)CCC2 [CBK018584G]	90.8%
COc1ccc(CN(C(=O)c2cccc(-n3cnnn3)c2)C2CC2)cc1 [CBK256997]	91.6%
CC(C)c1ccc(C(C)NC(=O)c2ccc(=O)n(CC(=O)N3CCCCC3)c2)cc1 (stereo not shown) [CBK286084]	88.7%
COc1ccc(-c2cncc(NCC3CCOCC3)n2)cc1 [CBK037285]	96.5%
